The values that follow come from patent publication US6060608A, “Analogs of CC-1065 and the duocarmycins” (The Scripps Research Institute, priority 1999, dated 2000).

Data set [1] deals with w794 duplex DNA. To be noted: unnatural enantiomers; prior comparison; cited from earlier work.
For data set [2] the following is noted: in vivo; cited from earlier work.
Data set [3] concerns w794 duplex DNA. Put plainly: DNA alkylation selectivity and efficiency within w794 DNA, thermally-induced strand cleavage and PAGE. The class given is biochemical, SV40. An outline of the steps: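 5′-32P end-labeled w794 duplex DNA in TE buffer (pH 7.2–7.5) incubated with agent in DMSO across concentrations, 4–37 °C for 24–76 h depending on agent. Unbound agent removed by EtOH precipitation; thermolysis 100 °C, 30 min cleaves alkylation sites, mapped by denaturing 8% PAGE beside Sanger standards and autoradiography.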

For data set [4], the system named is w794 DNA, 5'-AATTA high affinity site. Put plainly: Relative rate of DNA alkylation at the w794 5'-AATTA high affinity site. It counts as biochemical, SV40. Particulars: 25° C. The protocol:
Rate of DNA Alkylation. The relative rates of DNA alkylation for the natural enantiommers of CCBI-TMI (35) and CCBI-indole2 (37) versus those of the corresponding CBI and MCBI agents were measured at the single high affinity site in w794, 5'-AATTA. The relative rates earlier studies of DNA alkylation for MCBI-TMI, CBI-TMI, and duocarmycin SA were determined to be quite similar at 4° C., 1.8:1.0:0.9, respectively. […] In prior studies, we have highlighted similar observations with agents that span a much larger range of relative reactivities.
The DNA alkylation selectivity and efficiency of the natural enantiomers of 304-307 were compared with that of 1 in w794 DNA. […] These trends in the overall efficiency of DNA alkylation parallel the relative trends in cytotoxic potency.
(§1) DNA Alkylation Relative Rate of (+)-CCBI-TMI (35), (+)-CBI-TMI, and (+)-MCBI-TMI. Following the procedure detailed above, Eppendorf tubes containing 5' end-labeled w794 DNA (9 μL) in TE buffer (pH 7.5) were treated with (+)-CCBI-TMI (35), (+)-CBI-TMI, or (+)-MCBI-TMI (1 μL, 10^-6 M in DMSO). The solutions were mixed and incubated at 25° C. for 2, 4, 6, 9, 12, 15, and 24 h, respectively. Subsequent isolation of the alkylated DNA by EtOH precipitation, resuspension in TE buffer (10 μL, pH 7.5), thermolysis (30 min, 100° C.), PAGE, and autoradiography were conducted as detailed above. Relative rates for alkylation at the w794 high-affinity 5'-AATTA site were derived from the slopes of the plots of percent integrated optical density (IOD) of the high-affinity alkylation cleavage bands versus time.
as §1, with “(+)-CCBI-indole2 (37), (+)-CBI-indole2,” for “(+)-CCBI-TMI (35), (+)-CBI-TMI,”, “(+)-MCBI-indole2.” for “(+)-MCBI-TMI.”, “(+)-CCBI-indole2 (37), (+)-CBI-indole2, and (+)-MCBI-indole2” for “(+)-CCBI-TMI (35), (+)-CBI-TMI, or (+)-MCBI-TMI”

Data set [5] can be described thus: In vitro cytotoxic activity (cell line not given). The class given is cell-based.
The subject of data set [6] is w794 DNA, 5'-AATTA high affinity site. Particulars: 4° C., earlier studies, 1.8:1.0:0.9; cited from earlier work.
For data set [7] the test system is unchanged. Kind of data set: Relative rate of DNA alkylation at the w794 5'-AATTA high affinity site. The class given is biochemical, SV40. Particulars: 10^-5 M, 25° C., 1-72 h.
For data set [8], the system named is DNA. Particulars: cited from earlier work.
Data set [9] relates to DNA. To be noted: cited from earlier work. This is another data set of the same source.
The conditions of data set [10]: cited from earlier work.
The conditions of data set [11]: cited from earlier work. The source holds these as a separate data set.

SMILES strings stand for the structures.

Take `COc1cc2cc(C(=O)N3CC4CC45C3=CC(=O)c3ccccc35)[nH]c2c(OC)c1OC` (single isomer, unassigned; (-)) [(-)-CBI-TMI]: the “distinction in DNA alkylation efficiency from ent-(-)-duocarmycin SA” value in the data set with w794 duplex DNA [1] was 10 ×.
As for `COc1c(O)c2c(c3cc(C(=O)N4CCc5c4c(O)c(OC)c4[nH]c(C(=O)N6CC7CC78C6=CC(=O)c6[nH]cc(C)c68)cc54)[nH]c13)CCN2C(N)=O` (single isomer, unassigned) [ent-(-)-CC-1065], the “delayed toxicity” value in data set [2] is recorded as “has not been observed”.
`COC(=O)c1cc2c([nH]1)C(=O)C=C1N(C(=O)c3cc4cc(OC)c(OC)c(OC)c4[nH]3)CC3CC123` (stereo not shown) [duocarmycin SA]: in the data set with w794 duplex DNA [3], the “DNA alkylation properties, comparison in words” value was “exhibited the same selectivity and efficiency of DNA alkylation”. The “concentration of detectable alkylation of high affinity site 5'-AATTA” value in the data set with w794 duplex DNA [3] (25° C., 24 h) is given as 10^-6 to 10^-7 M. Further, in data set [4] (10^-6 M), the “relative rate of DNA alkylation, TMI series” value stood at 0.9 ×. For the same compound, the “properties relative to duocarmycin SA or 304” value in data set [5] is on record as “indistinguishable”. The “relative rate of DNA alkylation” value in data set [6] is 0.9. Further, in data set [7], the “krel, 1 relative to 305” value is listed as 1.3-2.3 and the “krel, faster than 304” value is on record as 18-33. Besides, the “adenine N3 adduct quantitated” value in the data set with DNA [8] was 95-100%.
With `COc1c(O)c2c(c3cc(C(=O)N4CCc5c4c(O)c(OC)c4[nH]c(C(=O)N6CC7CC78C6=CC(=O)c6[nH]cc(C)c68)cc54)[nH]c13)CCN2C(N)=O` (single isomer, unassigned; (+)) [(+)-CC-1065], the “delayed toxicity” value in data set [2] is given as “delayed fatal toxicity”.
As for `Cc1c(N)nc([C@H](CC(N)=O)NC[C@H](N)C(N)=O)nc1C(=O)N[C@H](C(=O)N[C@H](C)[C@@H](O)[C@H](C)C(=O)N[C@H](C(=O)NCCc1nc(-c2nc(C(=O)NCCC[S+](C)C)cs2)cs1)[C@@H](C)O)[C@@H](O[C@@H]1O[C@@H](CO)[C@@H](O)[C@H](O)[C@@H]1O[C@H]1O[C@H](CO)[C@@H](O)[C@H](OC(N)=O)[C@@H]1O)c1c[nH]cn1.[Br-]` [compound 104], the “apparent binding site size” value in the data set with DNA [9] is recorded as 3.8 base-pairs. The Kd at DNA [9] (dna, read-out: apparent DNA binding constant Kapp) is 10 µM.
As for `COC(=O)[C@]1(C)NC2=C(C1=O)[C@@]13C[C@@H]1CN(C(=O)c1cc4cc(OC)c(OC)c(OC)c4[nH]1)C3=CC2=O` [duocarmycin A], the “adenine N3 adduct quantitated” value in the data set with DNA [8] was 86-92%.
Regarding `O=C(Nc1ccc2[nH]c(C(=O)N3CC4CC45C3=CC(=O)c3ccccc35)cc2c1)c1cc2ccccc2[nH]1` (single isomer, unassigned) [CBI-indole2], the “relative rate of DNA alkylation, indole2 series” value in data set [4] is reported as 1.0 ×. For the same compound, the “in vivo antitumor activity” value in data set [10] is “potent and efficacious In vivo antitumor activity”. In data set [2], the “delayed toxicity” value is on record as “lacked the delayed fatal toxicity”. Moreover, the “cytotoxic potency greater than (+)-CPI-indole2 (U71,184)” value in [11] was 4 ×.
Take `COC(=O)c1cc2c([nH]1)C(=O)C=C1N(C(=O)c3cc4cc(OC)ccc4[nH]3)CC3CC123` (single isomer, unassigned) [compound 305]: in the data set on w794 duplex DNA [3], the “DNA alkylation properties, comparison in words” value is “essentially indistinguishable from 1 itself”. Moreover, the “properties relative to duocarmycin SA or 304” value in data set [5] is “indistinguishable”. For the same compound, the “cytotoxic activity relative to duocarmycin SA or 304 (words)” value in data set [5] (listed as (+)-305) was “indistinguishable from duocarmycin SA”. Also, the “krel, faster than 304” value in data set [7] is on record as 18-33.
